Laboratory results published in patent publication US20210379085A1, “HALOGENATED SALICYLANILIDES FOR TREATING THE SYMPTOMS OF DERMATITIS” (Union Therapeutics A/S, priority 2018, published 2021).

How the values were obtained:
[1] = in vivo; conditions: dog
[2] = Plasma pharmacokinetics of oxyclozanide after topical Composition K in dogs (Example 5); format: in vivo, dog
Experimental: The cutaneous route (topical administration) was the route of administration for composition K on dogs. Composition K was applied evenly along the backbone starting from the base of the tail to the back of the neck.
For all animals of group A, a blood sample of around 4 ml was collected from the jugular vein using tubes containing lithium heparin at the following times (with tolerance of 10%): D-3a, D0a+1h, D0a+6h, D0a+12h, D0a+16h, D0a+24h, D0a+32h, D0a+48h, D3a, D5a et D7a.
Centrifugation (around 3500 revolutions/min, for 15 minutes at +4° C.) was performed a maximum of 30 minutes after sampling. The plasma was collected and then divided into two aliquots in tubes (Nunc 1.8 ml type) as follows: • S1 aliquot: around 0.5 ml • S2 aliquot: the remainder of the plasma (more than 0.5 ml)
The pharmacokinetic analysis was performed using Phoenix software (version 6.3, Pharsight, USA). Data points indicated as “missing” were systematically ignored during the calculation and therefore have no effect on the results. A missing status is assigned and no flag symbol is used. Values were excluded if, in the judgement of the pharmacokineticist, they were deemed not to be “[…].” If outliers were suspected, they were identified using the Outlier identification procedure of STATGRAPHICS.

Vd ([1]; iv, 2.5 mg/kg): ~0.6 L/kg
half-life ([1]; iv, 2.5 mg/kg): 2280 min
bioavailability ([1]; po, 5 mg/kg): 48%
AUC(0-inf) ([1]; topical or ocular, 20 mg/kg): 55700 ng·h/mL
bioavailability ([1]; topical or ocular, 20 mg/kg): 12%
AUC(0-inf) ([2]; dog, plasma, topical or ocular, topical single 20 mg/kg Composition K, read-out: AUCinf in plasma (first value of the comparison, presumably Example 5)): 60600 ng·h/mL
concentrations of oxyclozanide in plasma after topical administration ([2]; topical 20 mg/kg Composition K): Low concentrations
bioavailability after topical administration (Example 5, by comparison of AUCinf with Example 4) ([2]; topical 20 mg/kg Composition K, not calculated, no intravenous route in this study): about 12%
SMILES: O=C(Nc1cc(Cl)cc(Cl)c1O)c1c(O)c(Cl)cc(Cl)c1Cl [Oxyclozanide]
